According to article PMC5394417, “Investigating the molecular mechanism of positive and negative allosteric modulators in the calcium-sensing receptor dimer” (Scientific Reports, 2017):

Biological target: T1, HA-D190A CaSR mutant (Rattus norvegicus, UniProt P48442, D190A)
T1 construct: mGluR5 signal peptide (N); expressed in transfected cells; host or cells: HEK293T
T1 sequence (P48442 20-1079 D190A): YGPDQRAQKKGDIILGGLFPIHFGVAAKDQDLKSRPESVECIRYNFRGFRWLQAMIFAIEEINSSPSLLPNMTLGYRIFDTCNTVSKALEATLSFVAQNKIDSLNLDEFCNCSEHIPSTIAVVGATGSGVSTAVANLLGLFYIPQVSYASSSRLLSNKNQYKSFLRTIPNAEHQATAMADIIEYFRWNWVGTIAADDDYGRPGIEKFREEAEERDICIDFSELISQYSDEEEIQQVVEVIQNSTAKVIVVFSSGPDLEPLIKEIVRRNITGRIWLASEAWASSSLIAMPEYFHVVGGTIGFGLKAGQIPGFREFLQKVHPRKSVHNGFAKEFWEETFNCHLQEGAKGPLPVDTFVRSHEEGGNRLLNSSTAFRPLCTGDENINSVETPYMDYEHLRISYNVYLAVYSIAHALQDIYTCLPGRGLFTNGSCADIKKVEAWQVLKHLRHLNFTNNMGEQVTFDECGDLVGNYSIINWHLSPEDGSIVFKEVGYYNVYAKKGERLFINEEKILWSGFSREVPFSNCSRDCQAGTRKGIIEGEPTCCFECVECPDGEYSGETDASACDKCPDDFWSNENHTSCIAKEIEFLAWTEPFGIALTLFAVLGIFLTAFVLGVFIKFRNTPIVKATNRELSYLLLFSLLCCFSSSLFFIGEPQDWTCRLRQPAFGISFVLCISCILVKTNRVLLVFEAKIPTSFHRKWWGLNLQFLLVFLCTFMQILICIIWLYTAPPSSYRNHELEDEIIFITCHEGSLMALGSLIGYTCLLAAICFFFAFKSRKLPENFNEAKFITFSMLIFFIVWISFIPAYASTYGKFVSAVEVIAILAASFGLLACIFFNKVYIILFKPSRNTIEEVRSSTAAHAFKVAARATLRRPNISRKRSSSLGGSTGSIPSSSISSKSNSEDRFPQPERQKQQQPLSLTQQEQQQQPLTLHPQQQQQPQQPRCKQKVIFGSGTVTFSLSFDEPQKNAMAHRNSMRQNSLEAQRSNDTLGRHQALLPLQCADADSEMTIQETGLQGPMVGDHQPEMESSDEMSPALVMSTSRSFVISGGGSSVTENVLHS
Assay: IP-One assay, HEK293T transiently transfected
Type: cell-based

SMILES: [Ca+2] [Ca^2+]
- EC50 (Ca^2+ alone): 17.8 mM
- Hill coefficient ± S.E.M. (Ca^2+ alone): 3.77 ± 0.39
- pEC50 ± S.E.M. (Ca^2+ alone): 1.75 ± 0.01
- Max ± S.E.M. (normalized to maximum response of WT CaSR): 110 ± 11%
